Data set [1] concerns T. brucei strain 427 bloodstream forms. Put plainly: Anti-trypanosomal activity on T. brucei, resazurin dose response. The format is cell-based, Trypanosoma brucei. As to conditions: for SI (Selectivity index): relative to HEK293T and HepG2 cells vs T. brucei. On the procedure:
T. brucei strain 427 bloodstream forms were cultivated at 37 °C with 5% CO2 in HMI-9 medium supplemented with 10% FBS. Cultivated parasites (2,500) were seeded in 384 well plates with the natural compounds and incubated for 3 days. After the incubation, the parasites were exposed to 120 µM of resazurin sodium salt (10.0 µL of a 720 µM solution in water) for 5 h. Then, the parasites were fixed with 4% PFA and the assay plates were read by Victor 3™ (PerkinElmer, Waltham, MA, USA) at 530 nmEx/590 nmEm. Pentamidine was used as a reference drug and DMSO 0.5% was used as a drug-negative control.
(§1) The acquired images from the high content intracellular T. cruzi screening were subjected to in-house software to quantify cell numbers, parasite numbers, and infection ratio as previously described. Each compound’s activity was normalized based on values of drug positive and negative control (120 nM of pentamidine for T. brucei and T. cruzi assays, 83.0 µM of chlorpromazine for cytotoxicity, and DMSO as 0% drug activity for negative control). Dose response curves were fitted by sigmoidal dose-response with variable slope, equation described as Y = Bottom + (Top − Bottom)/(1 + 10^(LogEC5 − X) − HillSlpe) using GraphPad Prism 6 Software (GraphPad Software, Suite 230 La Jolla, CA, USA).
(Resazurin is reduced to fluorescent resorufin, in cell work by metabolically active cells.)

Data set [2] is described as follows: Cytotoxicity assay, resazurin, HEK293T. The conditions noted are these: human. The format is cell-based, human. On the procedure:
(§2) HEK293T and HepG2 cells were cultured at 37 °C with 5% CO2 in Dulbecco’s modified eagle medium containing 10% FBS. Both cell types were plated individually in 384 well plates for testing the natural compounds at 3-fold dilution from 100 µM in 10-points concentration and incubated for 3 days. To determine viability, 10.0 µL of a 280 µM solution of resazurin sodium salt in water was added to the cells in the assay plate for at least 5 h (final concentration, 40.0 µM of resazurin) and resazurin reduction was measured with a Victor 3^TM fluorimeter (PerkinElmer) at 530 nmEx/590 nmEm.
as §1

Data set [3] in a line: Cytotoxicity assay, resazurin, HepG2. The format is cell-based, human. The conditions noted are these: human. On the procedure: as §2, §1
Data set [4] has as its system intracellular amastigotes of T. cruzi Y strain. Put plainly: Anti-trypanosomal activity on intracellular T. cruzi Y strain, high content image assay. The format is cell-based, Trypanosoma cruzi. As to conditions: for activity against intracellular T. cruzi (in words): 50.0 µM; for decrease of parasite survival / reduction of parasites growth compared to the DMSO control: 50.0 μM, 48 h, U2OS host cells. On the procedure: (§3) The assay for activity against T. cruzi Y strain was performed as previously described. Briefly, T. cruzi parasites were maintained in form of Tissue Culture Trypomastigote (TCT) by circulation in LLC-MK2 cell line (CCL-7, ATTC, Manassas, VA, USA). Seven days after the infection, the supernatant containing TCT parasites was collected and used to reinfect new cultures of LLC-MK2. The U2OS human cell (HTB-96, ATCC), cultivated in DMEM-high glucose media supplemented with 10% heat inactivated FBS, was used for the in vitro assay preparation. The cells were infected with the TCT form of T. cruzi. A homogeneous mixture of parasites and cells in DMEM-low glucose media, supplemented with 2% heat inactivated FBS, and was seeded into 384-well plates at 50.0 µL/well. The test compounds (final concentration of 50.0 µM) were added in 10.0 µL of 6% DMSO (final concentration, 1% DMSO) and the cells were incubated for 48 h at 37 °C, 5% CO2. After the incubation, the cells and parasites were fixed with 4% PFA and stained with 5.0 µM Draq5. Fluorescent images were acquired from each assay well using an Operetta microscope (Perkin Elmer).
as §1

A further data set relates to HEK293T cells. Put plainly: Cytotoxicity assay, resazurin, HEK293T. The data set is classed as cell-based, human. The conditions noted are these: pure compounds up to 100 µM. On the procedure: as §2, §1
In another data set the test system is U2OS human cell. Description: Host cell number in the T. cruzi high content image assay. The data set is classed as cell-based. As to conditions: 50.0 μM, 48 h, U2OS infected with T. cruzi. On the procedure: as §3
The acquired images from the high content intracellular T. cruzi screening were subjected to in-house software to quantify cell numbers, parasite numbers, and infection ratio as previously described. […]

Another data set deals with HepG2 cells. Description: Cytotoxicity assay, resazurin, HepG2. The data set is classed as cell-based, human. The conditions noted are these: pure compounds up to 100 µM. On the procedure:
as §2, §1

The subject of another data set is T. brucei rhodesiense. Also noted: method as in PMID 21157686. The conditions noted are these: cited from earlier work.
The test system of a further data set is Plasmodium falciparum. Also noted: method as in PMID 21157686. As to conditions: cited from earlier work.
The mark [5] stands for this setting: Trypanosoma brucei, 72 h, bloodstream forms, 3 days incubation, resazurin, read-out: T. brucei EC50 Values.
Setting [6] is: HEK293T cells, HEK293T, 3 days, highest concentration 100 µM, read-out: Cytotoxicity CC50 Values HEK293T.
The mark [7] stands for this setting: HepG2 cells, HepG2, 3 days, highest concentration 100 µM, read-out: Cytotoxicity CC50 Values HepG2.

We go through eight molecules from publication PMC6271609, “Secondary Metabolites from Vietnamese Marine Invertebrates with Activity against Trypanosoma brucei and T. cruzi” (Molecules, 2014).

As a reminder, the EC50 is the midpoint of the concentration-response curve. The CC50 is the concentration that lowers cell viability or growth by half.

“Also recorded” adds a separate entry of the source. Where two headings read alike, the source gives them in different places.

On to `CC(C)[C@@H](C)CC[C@@H](C)[C@H]1CC[C@H]2[C@@H]3CCC4=CC(=O)CC[C@]4(C)[C@H]3CC[C@]12C` [Compound 2, (24S)-ergost-4-ene-3-one], for which the EC50 in [1] (setting [5]) worked out at 5.47 ± 0.27 µM. The “SI (Selectivity index)” value in data set [1] is on record as >18.3. Moreover, the CC50 at 3 days in [2] (setting [6]) and in [3] (setting [7]) was > 100 µM in each case.
Consider `N=C(N)c1ccc(OCCCCCOc2ccc(C(=N)N)cc2)cc1` [Pentamidine, reference compound], for which the EC50 in data set [1] (setting [5]) is 0.015 ± 0.003 µM. The entries for the “SI (Selectivity index)” value in data set [1] and in data set [1] (listed as pentamidine) were <26.7 and 26.7, respectively. Further, the CC50 at 3 days in data set [2] (setting [6]) and in [3] (setting [7]) was < 0.4 µM throughout.
Consider `C=C1CO[C@H]2/C=C(\C)CC[C@@H]3O[C@]3(C)CC/C=C(\C)CC[C@@]12O` [Compound 1, laevigatol B], for which the “activity against intracellular T. cruzi (in words)” value in data set [4] is “significant activity; also recorded: significant inhibitory effects; also recorded: active”. In addition, the “decrease of parasite survival / reduction of parasites growth compared to the DMSO control” value in data set [4] was determined as 84.8%. In addition, the EC50 came out at 5.34 ± 0.47 µM in data set [1] (setting [5]) and 1.69 ± 0.12 mg/L in [1] (Trypanosoma brucei, bloodstream forms, resazurin, read-out: T. brucei EC50). Moreover, the “SI (Selectivity index)” value in data set [1] was >18.7. The CC50 at 3 days in [2] (setting [6]) and in data set [3] (setting [7]) was > 100 µM throughout. Besides, the “cytotoxicity on HEK293T (in words)” value in the data set on HEK293T cells was “did not display cytotoxicity”. Further, in the data set on U2OS human cell, the “reduction of the host cells” value worked out at 33%. Further, in the data set with HepG2 cells, the “cytotoxicity on HepG2 (in words)” value was “did not display cytotoxicity”.
For `CC(C)CCC[C@@H](C)[C@H]1CCC2=C3[C@H](O)C[C@H]4C[C@@H](O)CC[C@]4(C)[C@H]3CC[C@@]21C` [Compound 5, 5α-cholest-8(14)-ene-3β,7α-diol], in [4], the “activity against intracellular T. cruzi (in words)” value is recorded as “significant activity; also recorded: significant inhibitory effects; also recorded: active” and the “decrease of parasite survival / reduction of parasites growth compared to the DMSO control” value came out at 97.1%. The EC50 in data set [1] (Trypanosoma brucei, 72 h, read-out: T. brucei EC50 Values) is > 30 µM. Besides, the “activity against T. brucei (in words)” value in [1] (bloodstream forms) is “inactive”. In data set [2] (HEK293T, 3 days, highest concentration 100 µM, read-out: Cytotoxicity CC50 Values HEK293T), the CC50 at 3 days is > 100 µM. The “cytotoxicity on HEK293T (in words)” value in the data set on HEK293T cells was “did not show any cytotoxicity”. Further, the “reduction of the host cells” value in the data set with U2OS human cell is reported as “not significantly reduced”. Moreover, the “cytotoxicity on HepG2 (in words)” value in the data set on HepG2 cells is reported as “did not show any cytotoxicity”. The CC50 at 3 days in data set [3] (HepG2, 3 days, highest concentration 100 µM, read-out: Cytotoxicity CC50 Values HepG2) was > 100 µM.
As to `CC(C)CCC[C@@H](C)[C@H]1CC[C@@H]2[C@]1(C)CC[C@@H]1[C@@]3(C)CC[C@H](O)C[C@@H]3[C@@H](C=O)[C@]12O` [Compound 3, astropectenol A], the EC50 turned out to be 1.17 ± 0.14 µM in [1] (setting [5]) and 1.57 ± 0.14 µM in [1] (bloodstream forms, 3 days incubation, resazurin, read-out: T. brucei EC50 Values). The “SI (Selectivity index)” value in data set [1] is >63.7. Moreover, the CC50 at 3 days in data set [2] (setting [6]) and in data set [3] (setting [7]) was > 100 µM throughout.
Consider `CN(C)CCCN1c2ccccc2Sc2ccc(Cl)cc21` [Chlorpromazine, reference compound], for which the CC50 at 3 days in [2] (setting [6]) was 19.9 ± 3.48 µM; in data set [3] (setting [7]) it was 16.5 ± 0.45 µM.
Regarding `CC(C)CCC[C@@H](C)[C@H]1CC[C@H]2C3=C(CC[C@]12C)[C@@]1(C)CC[C@H](O)C[C@]1(O)[C@H](O)[C@H]3O` [Compound 4, cholest-8-ene-3β,5α,6β,7α-tetraol], the EC50 in data set [1] (setting [5]) was found to be 14.6 ± 1.36 µM. The “SI (Selectivity index)” value in [1] is >6.8. The CC50 at 3 days in data set [2] and in data set [3] was > 100 µM in each case.
With `C/C1=C\CC/C(C)=C/C[C@](O)(C(C)C)CC/C(C)=C/CC1` [serratol], the “activity against T. brucei rhodesiense (in words)” value with T. brucei rhodesiense was “active”. Besides, the “activity against Plasmodium falciparum (in words)” value in the data set with Plasmodium falciparum is “active”.
